Reference: patent US12661358B2, “Purine derivatives as drugs for the treatment of neonatal hypoxia-ischemia brain injury and related diseases” (COMMISSARIAT A L'ENERGIE ATOMIQUE ET AUX ENERGIES …, priority 2020, dated 2026)

Assays:
[1] = test system: primary rat cell-based BBB (blood-brain barrier) model; test: Permeability of 14C-sucrose on primary rat cell-based BBB model after LPS challenge; conditions: LPS 10 ng/mL; compound at 0.1 μM and 1 μM; figure axis in 10^−6 cm·s^−1
Description: FIG. 2A: The permeability of radiolabelled sucrose, a permeability marker, was studied on a primary rat cell-based BBB (blood-brain barrier) model after lipopolysaccharide (LPS) challenge.
First graph (left): y-axis: permeability of ^14C-sucrose through the BBB (10^−6 cm·s^−1); x-axis (from left to right): BBB control (negative control); BBB+LPS (10 ng/mL) (positive control); BBB+Compound 13 (0.1 μM); BBB+LPS+Compound 13 (0.1 μM); BBB+Compound 13 (1 μM); BBB+LPS+Compound 13 (1 μM).
Second graph (right): y-axis: permeability of ^14C-sucrose through the BBB (10^−6 cm·s^−1); x-axis (from left to right): BBB control (negative control); BBB+LPS (10 ng/mL) (positive control); BBB+Aftin-5 (0.1 μM); BBB+LPS+Aftin-5 (0.1 μM); BBB+Aftin-5 (1 μM); BBB+LPS+Aftin-5 (1 μM).
The permeability of radiolabelled sucrose (^14C-sucrose), a permeability marker, was studied on a primary rat cell-based BBB (blood-brain barrier) model. Permeability was measured in 10^−6 cm·s^−1. ^14C-sucrose is a small molecular weight marker of 342 Da that tends to reflect paracellular disruption.
To induce increased BBB permeability, lipopolysaccharide (LPS) was injected. LPS induces increased BBB permeability by stimulating formation and release of cytokines and other molecules.
Two different Aftin compounds were tested in this example: […]. […]

[2] = as demonstrated in WO2018/189122; cited from earlier work
[3] = test system: HI (Hypoxia-Ischemia) injury; test: Rice-Vannucci neonatal HI model, infarct measurement; type: in vivo, Wistar rats; conditions: P7 rats, 30 mg/kg IP immediately after hypoxia, 24 h and 48 h; read 72 h after HI (P10); compared to HI+PL; males and females
From the text: Subjects were Wistar rats born from time-mated dams obtain from Charles River Laboratory (Wilmington, […], USA).
Post-natal day 7 (P7) (CNS maturation corresponding to 32-34 weeks of gestation in human) rats were assigned to 3 groups: sham, HI+PL or HI+Compound 13.
In the sham group no hypoxia-ischemia was induced in the rats. This group served as a control group.
In the HI+PL group, where PL stands for placebo, hypoxia-ischemia was induced in the rats. The rats were then further administered a saline vehicle, which served as the placebo.
In the HI+Compound 13 group, hypoxia-ischemia was induced in the rats. The rats were then further administered a dose of Compound 13, which is a compound of formula (I) according to the invention.
The Rice-Vanucci method was used to induce the HI injury (Rice J E et al., 1981) in groups HI+PL and HI+Compound 13.
In summary, each animal from all three groups was anesthetized using 3-4% isoflurane and total absence of leg withdrawal reflexes was verified prior to proceeding to surgery. […]
The infarct was calculated as a percentage of the ratio of the damaged volume to the volume of the total contralateral hemisphere with correction for hemispheric edema, according to the following formula: infarct (%)=[1−(volume of total ipsilateral hemisphere−volume of infarct)/volume of total contralateral hemisphere)]×100%.

## CC[C@H](CO)Nc1nc(N(C)c2ccccc2)c2ncn(C(C)C)c2n1 [Aftin-5, (2R)-2-[[9-isopropyl-6-(N-methylanilino)purin-2-yl]amino]butan-1-ol]
[1]
  permeability of 14C-sucrose through the BBB under inflammatory stress: statistically restored the permeability properties of the BBB
[2]
  ability to cross the BBB: able to cross the BBB

## CC[C@H](CO)Nc1nc(N(CC)Cc2ccccc2)c2ncn(C(C)C)c2n1 [Compound 13, (2R)-2-[[6-[benzyl(ethyl)amino]-9-isopropyl-purin-2-yl]amino]butan-1-ol]
[3]
  infarct area / infarct volume of the hemisphere ipsilateral to HI injury: statistically reduced
[1]
  permeability of 14C-sucrose through the BBB under inflammatory stress: statistically restored the permeability properties of the BBB
